Drawing on patent publication US10689343B2, “Inhibitors of tryptophan 2,3-dioxygenase” (NETHERLANDS TRANSLATIONAL RESEARCH CENTER B.V., priority 2016, dated 2020), this text covers IC50 for 29 compounds.

Usually IC50 stands for the concentration that gives 50% inhibition.

The target in experiment [1] is CYP3A4 (Homo sapiens, UniProt P08684). As to the kind of experiment: P450-Glo CYP3A4 luciferin isopropylacetal (Luc-IP) assay.
Description: To determine the inhibitory potency of compounds on CYP3A4 enzyme, the P450-Glo CYP3A4 luciferin isopropylacetal (Luc-IP) assay was used (Promega, Madison, Wis., USA, Cat. No. V9920). The assay makes use of a luminogenic isopropylacetal (IPA) substrate that is a derivative from beetle luciferin, a substrate of luciferase enzymes. The IPA substrate is converted by CYP3A4 to luciferin, which in turn reacts with luciferase to produce an amount of light that is directly proportional to the activity of CYP3A4. Compounds were serially diluted in DMSO and finally in 400 mM K2HPO4, pH 7.4. 5 μl of compound solution and 5 μl of CYP3A4/substrate solution were combined in the well of a white 384-well Optiplate (Perkin Elmer). The DMSO concentration in the assay was 0.1%. After incubation for 10 minutes at room temperature in the dark, 10 μl of NADPH regeneration system was added and incubation was continued for 10 min. Then, 20 μl of Luciferin Detection Reagent was added to stop the reaction, and incubation was continued for another 20 min. Luminescence was measured on an Envision multimode reader and IC50 values were calculated using XLfit™. […] Instead of in a 96-well plate, the assay was performed in 384-well white Perkin Elmer Optiplate (cat. no. 6007290).
For experiment [2], the target named is CYP2D6 (Homo sapiens, UniProt P10635). As to the kind of experiment: P450-Glo CYP2D6 Luc-IP assay.
Experiment [3] has as its target T1, Recombinant TDO (Homo sapiens, UniProt P48775).
T1 construct: Recombinant TDO (Seegers, N., et al.) and all other assay components were diluted in TDO reaction buffer
Description: Biochemical assay for TDO (NFK GreenScreen). The note with it: 50 nM TDO, 200 μM L-tryptophan. How it is done: Biochemical Assay for TDO
The NFK GreenScreen™ assay technology was also used to determine the inhibitory activity of compounds on TDO (Seegers, N., et al., J. Biol. Screen. 19: 1266; 2014). Compounds were serially diluted in DMSO and finally in TDO reaction buffer, consisting of 100 mM NaH2PO4, pH 7.0, supplemented with 0.02% Tween-20 (cat. No. P7949; Sigma Aldrich). Recombinant TDO (Seegers, N., et al.) and all other assay components were diluted in TDO reaction buffer. 10 μl of compound solution and 20 μl of enzyme solution supplemented with 200 μM ascorbic acid were combined in the well of a black 384-well plate (cat. no. 3573; Corning, Corning, N.Y., USA), and incubated for 60 min at room temperature. Subsequently, 10 μl of 0.8 mM of the substrate L-tryptophan was added, i.e., the final concentration of L-tryptophan was 200 μM. The DMSO concentration in the assay was 0.3%. The concentration of TDO was 50 nM. Incubation was continued for 15 min at room temperature. Then, 10 μl of NFK Green™ (NTRC, Oss, The Netherlands) was added, the plate was sealed, and the reaction was developed for 3 hours at 37° C. To determine the production of N-formyl kynurenine (NFK), the seal was removed and fluorescence was read on an EnVision multimode reader (Perkin Elmer, Waltham, Mass., USA). IC50 were calculated using XLfit™ software (ID Business Solutions, Ltd., Surrey, U.K.).

Chain of CYP3A4 (P08684 whole entry): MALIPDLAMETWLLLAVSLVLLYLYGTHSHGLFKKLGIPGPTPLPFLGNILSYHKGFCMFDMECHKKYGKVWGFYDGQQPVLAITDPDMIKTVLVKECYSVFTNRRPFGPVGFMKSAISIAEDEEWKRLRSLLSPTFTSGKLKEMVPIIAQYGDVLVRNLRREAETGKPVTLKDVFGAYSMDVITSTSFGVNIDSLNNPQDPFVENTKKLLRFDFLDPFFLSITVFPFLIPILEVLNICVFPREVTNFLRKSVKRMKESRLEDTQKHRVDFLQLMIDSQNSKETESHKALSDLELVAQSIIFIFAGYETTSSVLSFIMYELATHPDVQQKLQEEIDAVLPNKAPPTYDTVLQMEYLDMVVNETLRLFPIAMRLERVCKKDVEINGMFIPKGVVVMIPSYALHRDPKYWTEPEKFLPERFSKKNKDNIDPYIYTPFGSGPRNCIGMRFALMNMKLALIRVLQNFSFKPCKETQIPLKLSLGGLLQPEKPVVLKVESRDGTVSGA
Chain of CYP2D6 (P10635 whole entry): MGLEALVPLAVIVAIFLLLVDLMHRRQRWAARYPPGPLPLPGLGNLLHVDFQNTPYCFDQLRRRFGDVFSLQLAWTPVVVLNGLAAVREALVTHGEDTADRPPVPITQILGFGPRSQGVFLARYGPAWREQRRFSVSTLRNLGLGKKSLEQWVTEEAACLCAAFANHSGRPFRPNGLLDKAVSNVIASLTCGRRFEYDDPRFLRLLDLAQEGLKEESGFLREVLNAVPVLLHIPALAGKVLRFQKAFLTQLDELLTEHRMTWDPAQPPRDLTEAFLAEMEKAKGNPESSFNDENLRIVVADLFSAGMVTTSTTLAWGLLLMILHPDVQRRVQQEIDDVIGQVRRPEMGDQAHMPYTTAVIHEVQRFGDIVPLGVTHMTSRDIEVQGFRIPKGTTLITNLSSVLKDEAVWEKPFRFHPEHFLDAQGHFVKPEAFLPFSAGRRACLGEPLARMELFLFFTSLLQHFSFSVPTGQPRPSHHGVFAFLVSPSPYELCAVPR
T1 sequence (P48775 whole entry): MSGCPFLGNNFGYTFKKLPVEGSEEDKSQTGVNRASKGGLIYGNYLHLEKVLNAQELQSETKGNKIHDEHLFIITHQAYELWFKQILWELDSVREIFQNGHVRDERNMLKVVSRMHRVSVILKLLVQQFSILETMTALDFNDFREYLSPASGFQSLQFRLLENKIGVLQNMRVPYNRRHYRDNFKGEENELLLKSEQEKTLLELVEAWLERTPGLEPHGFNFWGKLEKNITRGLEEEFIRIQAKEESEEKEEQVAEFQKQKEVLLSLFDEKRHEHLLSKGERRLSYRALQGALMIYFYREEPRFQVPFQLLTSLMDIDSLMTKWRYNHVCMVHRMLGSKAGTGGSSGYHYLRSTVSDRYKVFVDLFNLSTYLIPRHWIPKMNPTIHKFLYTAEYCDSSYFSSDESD

Regarding `CNC(=O)Nc1ccc(-c2c[nH]c3cc(F)ccc23)cc1` [Example 5, 1-[4-(6-Fluoro-1H-indol-3-yl)phenyl]-3-methyl-urea], the IC50 in experiment [1] was more than 10 µM; in experiment [2], more than 10 µM; in experiment [3] it was less than 1 µM.

With `CCNC(=O)Nc1ccc(-c2c[nH]c3cc(F)ccc23)cc1` [Example 6, 1-Ethyl-3-[4-(6-fluoro-1H-indol-3-yl)phenyl]urea], the results for the IC50 in experiment [1], in experiment [2] and in experiment [3] were more than 10 µM, more than 10 µM and 1 to 5 µM, respectively.

As to `CN(C)C(=O)Nc1ccc(-c2c[nH]c3cc(F)ccc23)cc1` [Example 7, 3-[4-(6-Fluoro-1H-indol-3-yl)phenyl]-1,1-dimethyl-urea], the figures for the IC50 in experiment [1], in experiment [2] and in experiment [3] were more than 10 µM, more than 10 µM and 1 to 5 µM, respectively.

Turning to `O=C(NCC1CC(F)(F)C1)c1ccc(-c2c[nH]c3cc(F)ccc23)cc1` [Example 9, N-[(3,3-difluorocyclobutyl)methyl]-4-(6-fluoro-1H-indol-3-yl)benzamide], the IC50 in experiment [1] is more than 10 µM; in experiment [2] it was more than 10 µM; in experiment [3], less than 1 µM.

Take `COC(=O)[C@@H](C)NC(=O)c1ccc(-c2c[nH]c3cc(F)ccc23)cc1` [Example 18, Methyl (2R)-2-[[4-(6-fluoro-1H-indol-3-yl)benzoyl]amino]propanoate]: the half-inhibitory concentration (IC50) was more than 10 µM in experiment [1], more than 10 µM in experiment [2] and less than 1 µM in experiment [3].

Regarding `CCCC(C)NC(=O)c1ccc(-c2c[nH]c3cc(F)ccc23)cc1` (centres unmarked) [Example 22, 4-(6-Fluoro-1H-indol-3-yl)-N-(1-methylbutyl)benzamide], the IC50 in experiment [1] is more than 10 µM; in experiment [2] it was more than 10 µM; in experiment [3], less than 1 µM.

Take `O=C(CC1CC1)Nc1ccc(-c2c[nH]c3cc(F)ccc23)cc1` [Example 28, 2-Cyclopropyl-N-[4-(6-fluoro-1H-indol-3-yl)phenyl]acetamide]: the half-maximal inhibitory concentration (IC50) in experiment [1] was more than 10 µM; in experiment [2] it was more than 10 µM; in experiment [3], 1 to 5 µM.

For `CCNCC(=O)Nc1ccc(-c2c[nH]c3cc(F)ccc23)cc1` [Example 29, 2-(Ethylamino)-N-[4-(6-fluoro-1H-indol-3-yl)phenyl]acetamide], the half-inhibitory concentration (IC50) in experiment [1] was more than 10 µM; in experiment [2], more than 10 µM; in experiment [3] it was less than 1 µM.

Consider `O=C(CC1COC1)Nc1ccc(-c2c[nH]c3cc(F)ccc23)cc1` [Example 30, N-[4-(6-fluoro-1H-indol-3-yl)phenyl]-2-(oxetan-3-yl)acetamide], for which the values for the IC50 in experiment [1], in experiment [2] and in experiment [3] were more than 10 µM, more than 10 µM and less than 1 µM, respectively.

Take `N#CCC(=O)Nc1ccc(-c2c[nH]c3cc(F)ccc23)cc1` [Example 32, 2-Cyano-N-[4-(6-fluoro-1H-indol-3-yl)phenyl]acetamide]: the IC50 in experiment [1] is more than 10 µM; in experiment [2], more than 10 µM; in experiment [3], less than 1 µM.

Consider `COCC(C)C(=O)Nc1ccc(-c2c[nH]c3cc(F)ccc23)cc1` (centres unmarked) [Example 33, N-[4-(6-fluoro-1H-indol-3-yl)phenyl]-3-methoxy-2-methyl-propanamide], for which the concentration for half-maximal inhibition (IC50) is more than 10 µM in experiment [1], more than 10 µM in experiment [2] and less than 1 µM in experiment [3].

As for `C[C@H](O)CC(=O)Nc1ccc(-c2c[nH]c3cc(F)ccc23)cc1` [Example 34, (3S)—N-[4-(6-fluoro-1H-indol-3-yl)phenyl]-3-hydroxy-butanamide], the IC50 in experiment [1] was more than 10 µM; in experiment [2] it was more than 10 µM; in experiment [3], less than 1 µM.

With `CC(C)(O)CC(=O)Nc1ccc(-c2c[nH]c3cc(F)ccc23)cc1` [Example 35, N-[4-(6-fluoro-1H-indol-3-yl)phenyl]-3-hydroxy-3-methyl-butanamide], the IC50 is more than 10 µM in experiment [1], more than 10 µM in experiment [2] and less than 1 µM in experiment [3].

Turning to `C[C@H](CO)NC(=O)c1ccc(-c2c[nH]c3ccc(F)cc23)cc1` [Example 37, 4-(5-Fluoro-1H-indol-3-yl)-N-[(1R)-2-hydroxy-1-methyl-ethyl]benzamide], the IC50 is more than 10 µM in experiment [1], more than 10 µM in experiment [2] and less than 1 µM in experiment [3].

As to `CN(C)CCCNC(=O)c1ccc(-c2c[nH]c3ccc(F)cc23)cc1` [Example 38, N-[3-(dimethylamino)propyl]-4-(5-fluoro-1H-indol-3-yl)benzamide], the IC50 in experiment [1] is more than 10 µM; in experiment [2], more than 10 µM; in experiment [3], less than 1 µM.

Turning to `O=C(NCC(F)(F)F)c1ccc(-c2c[nH]c3ccc(F)cc23)cc1` [Example 39, 4-(5-Fluoro-1H-indol-3-yl)-N-(2,2,2-trifluoroethyl)benzamide], the IC50 in experiment [1] is more than 10 µM; in experiment [2], more than 10 µM; in experiment [3], less than 1 µM.

Turning to `C[C@@H](CO)NC(=O)c1ccc(-c2c[nH]c3ccc(F)cc23)cc1` [Example 40, 4-(5-Fluoro-1H-indol-3-yl)-N-[(1S)-2-hydroxy-1-methyl-ethyl]benzamide], the concentration for half-maximal inhibition (IC50) in experiment [1] is more than 10 µM; in experiment [2], more than 10 µM; in experiment [3] it was less than 1 µM.

As for `O=C(N[C@H]1CCCNC1)c1ccc(-c2c[nH]c3ccc(F)cc23)cc1` [Example 41, 4-(5-Fluoro-1H-indol-3-yl)-N-[(3S)-3-piperidyl]benzamide], the half-maximal inhibitory concentration (IC50) in experiment [1] is more than 10 µM; in experiment [2], more than 10 µM; in experiment [3] it was less than 1 µM.

Take `O=C(NOC(CO)CO)c1ccc(-c2c[nH]c3cc(F)ccc23)cc1` [Example 65, 4-(6-Fluoro-1H-indol-3-yl)-N-[2-hydroxy-1-(hydroxymethyl)ethoxy]benzamide]: the concentration for half-maximal inhibition (IC50) was 5 to 10 µM in experiment [1], more than 10 µM in experiment [2] and less than 1 µM in experiment [3].

As to `O=C(NOC[C@H](O)CO)c1ccc(-c2c[nH]c3cc(F)ccc23)cc1` [Example 67, N-[(2R)-2,3-dihydroxypropoxy]-4-(6-fluoro-1H-indol-3-yl)benzamide], the concentration for half-maximal inhibition (IC50) in experiment [1] was 5 to 10 µM; in experiment [2] it was more than 10 µM; in experiment [3], less than 1 µM.

`Nc1ccn(C(=O)c2ccc(-c3c[nH]c4cc(F)ccc34)cc2)n1` [Example 85, (3-Aminopyrazol-1-yl)-[4-(6-fluoro-1H-indol-3-yl)phenyl]methanone]: the 50% inhibitory concentration (IC50) in experiment [1] is more than 10 µM; in experiment [2] it was 5 to 10 µM; in experiment [3] it was 1 to 5 µM.

`C[C@H](NC(=O)c1ccc(-c2c[nH]c3cc(F)ccc23)cc1)C(C)(C)C` [Example 88, 4-(6-Fluoro-1H-indol-3-yl)-N-[(1S)-1,2,2-trimethylpropyl]benzamide]: the results for the IC50 in experiment [1], in experiment [2] and in experiment [3] were more than 10 µM, more than 10 µM and 1 to 5 µM, respectively.

For the compound `O=C(NCC1(O)CCCCC1)c1ccc(-c2c[nH]c3cc(F)ccc23)cc1` [Example 89, 4-(6-Fluoro-1H-indol-3-yl)-N-[(1-hydroxycyclohexyl)methyl]benzamide], the half-maximal inhibitory concentration (IC50) in experiment [1] was more than 10 µM; in experiment [2], more than 10 µM; in experiment [3], 1 to 5 µM.

As to `NCCNC(=O)c1ccc(-c2c[nH]c3cc(F)ccc23)cc1` [Example 90, N-(2-aminoethyl)-4-(6-fluoro-1H-indol-3-yl)benzamide], the IC50 is more than 10 µM in experiment [1], more than 10 µM in experiment [2] and less than 1 µM in experiment [3].

As for `O=C(NC[C@H]1CCNC1)c1ccc(-c2c[nH]c3cc(F)ccc23)cc1` [Example 91, 4-(6-Fluoro-1H-indol-3-yl)-N-[[(3S)-pyrrolidin-3-yl]methyl]benzamide], the half-inhibitory concentration (IC50) is 5 to 10 µM in experiment [1], more than 10 µM in experiment [2] and less than 1 µM in experiment [3].

With `CC(C)NC(=S)N1CCC[C@@H](CNC(=O)c2ccc(-c3c[nH]c4cc(F)ccc34)cc2)C1` [Example 92, 4-(6-Fluoro-1H-indol-3-yl)-N-[[(3S)-1-(isopropylcarbamothioyl)-3-piperidyl]methyl]benzamide], the IC50 is more than 10 µM in experiment [1], more than 10 µM in experiment [2] and 1 to 5 µM in experiment [3].

Consider `O=C(CCc1ccccc1)Nc1ccc(-c2c[nH]c3cc(F)ccc23)cc1` [Example 96, N-[4-(6-fluoro-1H-indol-3-yl)phenyl]-3-phenyl-propanamide], for which the IC50 was more than 10 µM in experiment [1], more than 10 µM in experiment [2] and 1 to 5 µM in experiment [3].

`O=C(CC1(O)CCCC1)Nc1ccc(-c2c[nH]c3cc(F)ccc23)cc1` [Example 98, N-[4-(6-fluoro-1H-indol-3-yl)phenyl]-2-(1-hydroxycyclopentyl)acetamide]: the IC50 is more than 10 µM in experiment [1], more than 10 µM in experiment [2] and less than 1 µM in experiment [3].

Turning to `O=C(Nc1ccc(-c2c[nH]c3cc(F)ccc23)cc1)C1CCC1(F)F` (centres unmarked) [Example 101, 2,2-Difluoro-N-[4-(6-fluoro-1H-indol-3-yl)phenyl]cyclobutanecarboxamide], the 50% inhibitory concentration (IC50) in experiment [1] and in experiment [2] was more than 10 µM each time.
